Reference: patent US11905286B2, “Diazabicyclooctanones as inhibitors of serine beta-lactamases” (priority 2018, dated 2024)
≈ marks a conversion by molar mass, not a printed value. Counter-ions that a name gives are not always drawn. Like-named read-outs stand apart in the source and are kept apart here.

What was measured:
[1] = target: T1, AmpC (Enterobacter cloacae, UniProt P05364); conditions: read-out: Amp-C mean IC50 (banded); nitrocefin 100 μM, band
[2] = test system: NTBC091.1 (E. coli strain expressing KPC-2, TEM-1); experiment: Meropenem potentiation, broth micro-dilution MIC, strain NTBC091.1; assay type: cell-based; conditions: for MIC mero + 4 μg/mL inhibitor (banded): NTBC091.1, MIC of meropenem with 4 μg/mL of the labelled inhibitor, band; for MIC of meropenem + compound compared with meropenem + avibactam: NTBC091.1
Procedure: (§4) The experiments were carried out using the ‘broth micro-dilution method’ according to the protocols M07-A8 established by the Clinical Laboratory Standards Institute (CLSI). […] After incubation for 18-20 hours in a heating chamber at 37° C., the growth inhibition was evaluated by the absence of any bacterial development.
(§5) Compounds of the invention were tested at concentrations of 4 μg/mL.

[3] = test system: NTBC189 (K. pneumoniae strain expressing TEM-OSBL(b), CTX-M-14, OXA-48(c)); experiment: Meropenem potentiation, broth micro-dilution MIC, strain NTBC189
Procedure: as §4, §5

[4] = test system: NTBC096.1 (K. pneumoniae strain expressing OXA-181 and SHV-11); experiment: Meropenem potentiation, broth micro-dilution MIC, strain NTBC096.1; assay type: cell-based
Procedure: as §4, §5

[5] = target: CTX-M15 (Escherichia coli, UniProt Q9EXV5); experiment: In vitro enzyme inhibition assay (nitrocefin hydrolysis), CTX-M15; assay type: biochemical
Sequence of CTX-M15 (Q9EXV5 entry or part of it): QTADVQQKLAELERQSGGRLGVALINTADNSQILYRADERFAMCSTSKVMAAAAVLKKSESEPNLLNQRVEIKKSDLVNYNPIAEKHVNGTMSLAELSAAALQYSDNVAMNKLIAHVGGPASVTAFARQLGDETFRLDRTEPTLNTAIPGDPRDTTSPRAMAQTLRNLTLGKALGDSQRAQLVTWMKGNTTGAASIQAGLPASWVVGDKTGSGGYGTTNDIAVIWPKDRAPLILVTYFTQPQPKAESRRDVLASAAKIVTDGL
Procedure: (§1) Compound dilution was performed in DMSO.

[6] = test system: NTBC093 (E. cloacae strain expressing KPC-2, TEM-1); experiment: Meropenem potentiation, broth micro-dilution MIC, strain NTBC093
Procedure: as §4, §5

[7] = target: OXA-48 (Klebsiella pneumoniae, UniProt Q6XEC0); experiment: In vitro enzyme inhibition assay (nitrocefin hydrolysis), OXA-48; assay type: biochemical
Sequence of OXA-48 (Q6XEC0 23-265 limits assumed): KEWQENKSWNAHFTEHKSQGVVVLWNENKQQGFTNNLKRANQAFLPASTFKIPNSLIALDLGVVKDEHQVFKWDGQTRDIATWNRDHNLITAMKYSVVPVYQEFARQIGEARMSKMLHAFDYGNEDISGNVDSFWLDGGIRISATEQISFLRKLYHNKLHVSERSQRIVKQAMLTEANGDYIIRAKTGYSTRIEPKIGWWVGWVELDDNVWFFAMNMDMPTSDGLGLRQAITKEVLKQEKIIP
Procedure: as §1

[8] = target: KPC-2 (Klebsiella pneumoniae, UniProt Q9F663); experiment: In vitro enzyme inhibition assay (nitrocefin hydrolysis), KPC-2; assay type: biochemical
Sequence of KPC-2 (Q9F663 25-293 limits assumed): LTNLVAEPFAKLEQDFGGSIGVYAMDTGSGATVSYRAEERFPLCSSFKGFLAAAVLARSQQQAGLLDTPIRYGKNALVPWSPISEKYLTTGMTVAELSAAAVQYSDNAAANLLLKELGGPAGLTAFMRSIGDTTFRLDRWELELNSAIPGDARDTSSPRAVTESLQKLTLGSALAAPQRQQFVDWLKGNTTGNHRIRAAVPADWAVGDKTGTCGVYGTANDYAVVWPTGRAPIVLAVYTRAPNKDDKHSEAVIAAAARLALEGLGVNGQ
Procedure: as §1

[9] = target: T1, AmpC; experiment: biochemical
[10] = test system: panel of 48 A. baumannii strains (OXA positive clinical isolates); experiment: Cumulative MIC, panel of 48 A. baumannii strains (FIG. 3)
[11] = target: TEM-1 (Escherichia coli, UniProt P62593); experiment: In vitro enzyme inhibition assay (nitrocefin hydrolysis), TEM-1; assay type: biochemical; conditions: nitrocefin 100 μM, band; read-out: TEM-1 mean IC50 (banded)
Sequence of TEM-1 (P62593 24-286 limits assumed): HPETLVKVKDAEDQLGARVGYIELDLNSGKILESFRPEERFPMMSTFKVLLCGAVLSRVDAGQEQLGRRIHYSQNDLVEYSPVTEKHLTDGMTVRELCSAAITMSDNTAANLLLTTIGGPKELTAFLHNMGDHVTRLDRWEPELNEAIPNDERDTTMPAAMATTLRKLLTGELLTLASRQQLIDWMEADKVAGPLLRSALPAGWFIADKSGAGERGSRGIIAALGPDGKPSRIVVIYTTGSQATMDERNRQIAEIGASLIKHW
Procedure: as §1

[12] = test system: clinical strains of KPC positive enterobacteriaceae; conditions: FIG. 2, meropenem + 4 μg/mL inhibitor
[13] = test system: OXA-expressing clinical strain of Klebsiella pneumoniae (AC00783); experiment: Mouse thigh infection efficacy model, AC00783; assay type: in vivo; conditions: mice, IV at 1, 3, 5 and 7 hours post infection with constant dose of meropenem, 9 hours post infection
Procedure: (§2) Compounds of the invention were further examined in animal efficacy models.
(§3) Vehicle, meropenem alone or meropenem and a compound of the invention (Example 10) were administered by IV at 1, 3, 5 and 7 hours post infection. 9 hours post infection animals were sacrificed and the number of colony forming units (CFUs) was measured in order to quantify bacterial burden (colony forming units per gram thigh tissue, CFU/g).

[14] = test system: KPC-expressing clinical strain of Klebsiella pneumoniae (NR-48977); experiment: MIC against strain used in thigh model, NR-48977; assay type: cell-based
Text: as §2

[15] = test system: OXA-expressing clinical strain of Acinetobacter baumannii (AC00445); experiment: Mouse thigh infection efficacy model, AC00445; assay type: in vivo; conditions: mice, IV at 1, 3, 5 and 7 hours post infection with constant dose of meropenem, 9 hours post infection
Procedure: as §2, §3

[16] = test system: larger panel of clinical strains of OXA positive enterobacteriaceae; experiment: Cumulative MIC, larger panel of clinical strains of OXA positive enterobacteriaceae (FIG. 1B); conditions: meropenem + 4 μg/mL inhibitor
[17] = test system: OXA-expressing clinical strain of Acinetobacter baumannii (AC00445); experiment: MIC against strain used in thigh model, AC00445; assay type: cell-based
Text: as §2

[18] = test system: KPC-expressing clinical strain of Klebsiella pneumoniae (NR-48977); experiment: Mouse thigh infection efficacy model, NR-48977; assay type: in vivo; conditions: mice, IV at 1, 3, 5 and 7 hours post infection with constant dose of meropenem, 9 hours post infection
Procedure: as §2, §3

[19] = test system: OXA-expressing clinical strain of Klebsiella pneumoniae (AC00783); experiment: MIC against strain used in thigh model, AC00783; assay type: cell-based
Text: as §2

[20] = test system: clinical strains of OXA positive enterobacteriaceae; experiment: Cumulative MIC, panel of clinical strains of OXA positive enterobacteriaceae (FIG. 1A); conditions: antibiotic alone or clinical combination
[21] = Klebsiella pneumoniae, read-out: MIC mero + 4 μg/mL inhibitor

T1 sequence (P05364 21-381): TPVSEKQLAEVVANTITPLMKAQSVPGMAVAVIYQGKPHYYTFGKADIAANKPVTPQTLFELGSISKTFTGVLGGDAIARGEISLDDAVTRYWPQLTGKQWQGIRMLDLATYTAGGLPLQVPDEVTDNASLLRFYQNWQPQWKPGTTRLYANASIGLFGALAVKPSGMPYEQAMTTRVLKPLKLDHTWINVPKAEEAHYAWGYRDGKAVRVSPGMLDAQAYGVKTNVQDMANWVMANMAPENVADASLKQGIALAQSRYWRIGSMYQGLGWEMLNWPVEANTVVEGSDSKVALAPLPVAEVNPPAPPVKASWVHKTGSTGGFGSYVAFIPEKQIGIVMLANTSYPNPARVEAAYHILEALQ

| SMILES | MIC mero + 4 μg/mL inhibitor (banded) [2] | IC50 [7] | IC50 [8] | IC50 [5] | IC50 [9] | further results |
| --- | --- | --- | --- | --- | --- | --- |
| NC(=O)[C@@H]1CC[C@@H]2CN1C(=O)N2OS(=O)(=O)O [Avibactam, avibactam, reference compound] | A (1 μg/mL) | – | – | – | – | IC50 [1]: < 10 nM; MIC mero + 4 μg/mL inhibitor (banded) ([3]; NTBC189, MIC of meropenem with 4 μg/mL of the labelled inhibitor, band): A (1 μg/mL); MIC mero + 4 μg/mL inhibitor (banded) ([4]; NTBC096.1, MIC of meropenem with 4 μg/mL of the labelled inhibitor, band): B (MIC=1 or 2 μg/mL); IC50 ([5]; nitrocefin 50 μM, band, read-out: CTX-M15 mean IC50 (banded)): < 5 nM; MIC mero + 4 μg/mL inhibitor (banded) ([6]; NTBC093, MIC of meropenem with 4 μg/mL of the labelled inhibitor, band): A (1 μg/mL); MIC mero + 4 μg/mL inhibitor ([6]; NTBC093, MIC of meropenem with 4 μg/mL of the labelled inhibitor, value): 0.03 µg/mL |
| O=C1N2C[C@@H](CC[C@H]2C(F)(F)F)N1OS(=O)(=O)O [Example 1, Sodium (2S, 5R)-7-oxo-2-(trifluoromethyl)-1,6-diazabicyclo[3.2.1]octan-6-yl sulfate] | (A) (1 μg/mL) | < 20 nM | < 10 nM | 5 to 20 nM | – | MIC of meropenem + compound compared with meropenem + avibactam [2]: lower; MIC [3, 21]: 2 µg/mL; MIC [4, 21]: 4 µg/mL; MIC ([6]; Enterobacter cloacae, read-out: MIC mero + 4 μg/mL inhibitor): 0.06 µg/mL |
| O=C1N2C[C@@H](CC[C@H]2C(Cl)Cl)N1OS(=O)(=O)O [Example 3, Sodium (2S,5R)-2-(dichloromethyl)-7-oxo-1,6-diazabicyclo[3.2.1]octan-6-yl sulfate] | (A) (1 μg/mL) | 100 to 200 nM | < 10 nM | 20 to 100 nM | 40 to 60 nM | – |
| O=C1N2C[C@@H](CC[C@H]2CF)N1OS(=O)(=O)[O-].[Na+] [Example 4, Sodium (2S, 5R)-2-(fluoromethyl)-7-oxo-1,6-diazabicyclo[3.2.1]octan-6-yl sulphate] | (A) (1 μg/mL) | 200 to 300 nM | > 10 nM | 5 to 20 nM | < 10 nM | – |
| CC(F)(F)[C@@H]1CC[C@@H]2CN1C(=O)N2OS(=O)(=O)[O-].[Na+] [Example 5, Sodium (2S, 5R)-2-(1,1-difluoroethyl)-7-oxo-1,6-diazabicyclo[3.2.1]octan-6-yl sulphate] | (A) (1 μg/mL) | 20 to 100 nM | > 10 nM | 5 to 20 nM | 40 to 60 nM | – |
| O=C1N2C[C@@H](CC[C@H]2CCl)N1OS(=O)(=O)[O-].[Na+] [Example 6, Sodium (2S, 5R)-2-(chloromethyl)-7-oxo-1,6-diazabicyclo[3.2.1]octan-6-yl sulphate] | (A) (1 μg/mL) | 200 to 300 nM | > 10 nM | – | 10 to 40 nM | – |
| O=C1N2C[C@@H](CC[C@H]2SC(F)(F)F)N1OS(=O)(=O)[O-].[Na+] [Example 7, Sodium (2R, 5R)-7-oxo-2-[(trifluoromethyl)sulfanyl]-1,6-diazabicyclo[3.2.1]octan-6-yl sulphate] | (A) (1 μg/mL) | 200 to 300 nM | > 10 nM | – | 40 to 60 nM | – |
| O=C1N2C[C@@H](CC[C@H]2COC(F)(F)F)N1OS(=O)(=O)[O-].[Na+] [Example 8, Sodium (2S, 5R)-7-oxo-2-[(trifluoromethoxy)methyl]-1,6-diazabicyclo[3.2.1]octan-6-yl sulphate] | (A) (1 μg/mL) | 200 to 300 nM | < 10 nM | 100 to 200 nM | 40 to 60 nM | – |
| O=C1N2C[C@@H](CC[C@H]2C(F)(F)c2nccs2)N1OS(=O)(=O)[O-].[Na+] [Example 9, Sodium (2S, 5R)-2-[difluoro(1,3-thiazol-2-yl)methyl]-7-oxo-1,6-diazabicyclo[3.2.1]octan-6-yl sulphate] | (A) (1 μg/mL) | 200 to 300 nM | < 10 nM | 20 to 100 nM | < 10 nM | – |
| O=C1N2C[C@@H](CC[C@H]2F)N1OS(=O)(=O)[O-].[Na+] [Example 10, Sodium (2R,5R)-2-fluoro-7-oxo-1,6-diazabicyclo[3.2.1]octan-6-yl sulfate] | (A) (1 μg/mL) | 200 to 300 nM | > 10 nM | – | 10 to 40 nM | % of the strains susceptible ([10]; FIG. 3, in the presence of 2 μg/mL of each inhibitor, inhibitor in combination with meropenem): around 50%; % of the strains susceptible ([10]; FIG. 3, in the presence of 16 μg/mL of each inhibitor, inhibitor in combination with meropenem): ~100%; MIC90 of meropenem with addition of 4 μg/mL of inhibitor ([10]; FIG. 3, meropenem + 4 μg/mL inhibitor): 8 µg/mL; MIC of meropenem + compound compared with meropenem + avibactam [2]: lower; IC50 [11]: < 3 nM; MIC50 of meropenem with addition of 4 μg/mL of inhibitor [12]: 0.12 µg/mL; bacterial burden (colony forming units per gram thigh tissue) [13]: dose response; MIC (Meropenem + inhibitor at 4 μg/mL) ([14]; NR-48977): 1 µg/mL; MIC of meropenem + compound compared with meropenem + avibactam ([3]; NTBC189): lower; bacterial burden (colony forming units per gram thigh tissue) [15]: dose response; MIC50 of meropenem with addition of 4 μg/mL of inhibitor [16]: 0.12 µg/mL; MIC90 of meropenem with addition of 4 μg/mL of inhibitor [16]: 0.5 µg/mL; MIC of meropenem + compound compared with meropenem + avibactam ([4]; NTBC096.1): lower; MIC (Meropenem + inhibitor at 4 μg/mL) ([17]; AC00445): 4 µg/mL; MIC of meropenem + compound compared with meropenem + avibactam ([6]; NTBC093): similar; bacterial burden (colony forming units per gram thigh tissue) [18]: dose response; MIC (Meropenem + inhibitor at 4 μg/mL) [19]: 0.25 µg/mL |
| O=C1N2C[C@@H](CC[C@@H]2F)N1OS(=O)(=O)[O-].[Na+] [Example 11, Sodium (2S, 5R)-2-fluoro-7-oxo-1,6-diazabicyclo [3.2.1]octan-6-yl sulfate] | (A) (1 μg/mL) | > 300 nM | > 10 nM | – | > 60 nM | IC50 [11]: > 10 nM |
| O=C1N2C[C@@H](CC[C@H]2Cl)N1OS(=O)(=O)[O-].[Na+] [Example 12, Sodium (2R,5R)-2-chloro-7-oxo-1,6-diazabicyclo[3.2.1]octan-6-yl sulfate] | (A) (1 μg/mL) | > 300 nM | > 10 nM | – | < 10 nM | MIC of meropenem + compound compared with meropenem + avibactam [2]: lower; IC50 [11]: < 3 nM |
| C[C@@H](O)[C@H]1C(=O)N2C(C(=O)O)=C(S[C@@H]3CN[C@H](C(=O)N(C)C)C3)[C@H](C)[C@H]12 [meropenem, reference compound] | – | – | – | – | – | % of the strains susceptible ([10]; FIG. 3, in the presence of 2 μg/mL of each inhibitor, antibiotic alone or clinical combination): 0%; MIC ([14]; Klebsiella pneumoniae, read-out: MIC (meropenem alone)): 64 µg/mL (≈ 167 µM); MIC ([17]; Acinetobacter baumannii, read-out: MIC (meropenem alone)): 64 µg/mL (≈ 167 µM); fraction of strains susceptible at an MIC of 1 μg/mL [20]: 0% |
